Experimental findings from US20210087167A1, “ASK1 INHIBITOR COMPOUNDS AND USES THEREOF” (SEAL ROCK THERAPEUTICS, INC., priority 2017, published 2021) are described below.

T1 sequence (Q99683 649-946 limits assumed): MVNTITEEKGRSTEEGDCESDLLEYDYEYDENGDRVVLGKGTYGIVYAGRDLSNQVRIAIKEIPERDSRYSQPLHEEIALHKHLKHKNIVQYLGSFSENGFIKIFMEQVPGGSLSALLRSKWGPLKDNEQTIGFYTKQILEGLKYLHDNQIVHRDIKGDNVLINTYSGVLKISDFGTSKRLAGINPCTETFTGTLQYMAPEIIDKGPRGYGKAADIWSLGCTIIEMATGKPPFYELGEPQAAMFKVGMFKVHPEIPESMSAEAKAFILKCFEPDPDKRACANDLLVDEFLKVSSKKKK

The first experiment addresses T1, ASK1 (Homo sapiens, UniProt Q99683).
T1 construct: purchased Promega V3881
Briefly: ASK1 Kinase Assay (Promega ASK1 Kinase Enzyme System, ADP-Glo). In kind it is biochemical. Conditions: enzyme 50 nM, myelin basic protein 1 μg/ml, ATP 10 μM. As for the experimental part:
The ASK1 enzymatic assay was run following Promega ASK1 Kinase Enzyme System (Cat #V3881). The kit provides the protocol, enzymes and all reagents necessary to run an assay.
Firstly, the compounds, enzyme, substrate and ATP were diluted in provided assay buffer. The final concentration of the enzyme was 50 nM, substrate (Myelin basic protein) 1 μg/ml and ATP 10 μM. The compound and the enzyme were pre-incubated in a 384 well white solid bottom plate (Greiner, Cat #784075) for 10 minutes. After incubation, the substrate and ATP were added and incubated for further 60 minutes. After 60 minutes, ADP-Glo™ was added and plate was incubated for another 40 minutes. After 40 minutes, Kinase Detection Reagent was added and the plate was incubated for 45 minutes. After 45 minutes, plate was read on Perkin Elmer EnVision using luminescence read (0.5 seconds/well).
A general note: ADP-Glo turns the ADP formed in a reaction into a luminescent signal.
Usually IC50 stands for the concentration needed to halve the response being measured. In the case of “2-(6-(4-cyclopropyl-4H-1,2,4-triazol-3-yl)pyridin-2-yl)-5-isopropoxy-6-(pyridin-3-yl)isoindolin-1-one [Compound 70]”, the IC50 is < 0.2 µM.
Same read-out and setting: for `Cn1ccc(-c2ccc3c(c2)CN(c2cccc(-c4nncn4C4CC4)n2)C3=O)n1` [Compound 27] the value was < 0.2 µM.
On the same count and under the same terms, next, `CN(C)c1ccc2c(c1)CN(c1cccc(-c3nncn3C3CC3)n1)C2=O` [Compound 34]: < 0.2 µM.
`O=C(Nc1cc2c(cc1F)CN(c1cccc(-c3nncn3C3CC3)n1)C2=O)C1CC1` [Compound 75, N-(2-(6-(4-cyclopropyl-4H-1,2,4-triazol-3-yl)pyridin-2-yl)-6-fluoro-3-oxoisoindolin-5-yl)cyclopropanecarboxamide] showed an IC50 of 0.2 to 1 µM.

Another experiment concerns LPS-induced TNFalpha in human PBMCs. Briefly: Inhibition of LPS-induced TNFalpha in human PBMCs (ELISA). The experiment is classed as cell-based. The conditions noted are these: PBMC, 100 ng/ml LPS, 6 hr, read-out: TNFa Inhibition IC50. As to the method:
Cryopreserved human PBMCs were obtained from AllCells (cat #PB003F). After thawing/dilution protocols using RPMI medium supplemented with 5% FBS (heat inactivated), 100 ul/well of 1×10^6 cells/ml were plated into 96 well tissue culture plates (Corning). Cells were then pre-incubated for 1 hr at 37° C. in humidified 5% CO2 and 95% air with test compounds diluted in DMSO (final DMSO concentration 0.3%). Each compound was tested at 10 concentrations in duplicate wells. After the pre-incubation, 100 ng/ml LPS (E. Coli; Sigma) in RPMI media with 5% FBS was added for a 6 hr incubation at 37° C. in humidified 5% CO2 and 95% air. Controls on each plate included cells and LPS only, cells and media only (no LPS), and media only. After the 6 hr incubation, plates were centrifuged and the supernatants transferred to a new plate and frozen for subsequent TNFalpha analysis. Human TNFalpha was analyzed by ELISA according to the manufacturer's instructions (BD Sciences, BD OptEIAm Cat #550610) and analyzed on a SpectraMax M series (Molecular Devices) microplate reader at OD 450 nm. IC50s were calculated using XLFit4 curve fitting software (IDBS) and a 4-parameter one-site sigmoid dose response fit.
For orientation: An ELISA detects its analyte on a solid surface through an enzyme-linked reagent.
For `O=C(c1ccc2c(c1)CN(c1cccc(-c3nncn3C3CC3)n1)C2=O)N1CCOCC1` [Compound 7, 2-(6-(4-cyclopropyl-4H-1,2,4-triazol-3-yl)pyridin-2-yl)-5-(morpholine-4-carbonyl)isoindolin-1-one], the IC50 is > 10 µM.
Same read-out and setting: next, `O=C(c1ccc2c(c1)CN(c1cccc(-c3nncn3C3CC3)n1)C2=O)N1CCC(O)CC1` [Compound 12, 2-(6-(4-cyclopropyl-4H-1,2,4-triazol-3-yl)pyridin-2-yl)-5-(4-hydroxypiperidine-1-carbonyl)isoindolin-1-one]: > 10 µM.
Consider `CC1(O)CCN(C(=O)c2ccc3c(c2)CN(c2cccc(-c4nncn4C4CC4)n2)C3=O)CC1` [Compound 13, 2-(6-(4-cyclopropyl-4H-1,2,4-triazol-3-yl)pyridin-2-yl)-5-(4-hydroxy-4-methylpiperidine-1-carbonyl)isoindolin-1-one], for which the IC50 is > 10 µM.
Still for that read-out and setting: next, `CC(=O)N1CCN(C(=O)c2ccc3c(c2)CN(c2cccc(-c4nncn4C4CC4)n2)C3=O)CC1` [Compound 16, 5-(4-acetylpiperazine-1-carbonyl)-2-(6-(4-cyclopropyl-4H-1,2,4-triazol-3-yl)pyridin-2-yl)isoindolin-1-one]: > 10 µM.
On the same count and under the same terms, next, `CC(=O)NC1CCN(C(=O)c2ccc3c(c2)CN(c2cccc(-c4nncn4C4CC4)n2)C3=O)CC1` [Compound 17, N-(1-(2-(6-(4-cyclopropyl-4H-1,2,4-triazol-3-yl)pyridin-2-yl)-1-oxoisoindoline-5-carbonyl)piperidin-4-yl)acetamide]: > 10 µM.
The same measure, in the same setting: for `O=C1c2cc(-c3cnc(C4CC4)cn3)ccc2CN1c1cccc(-c2nncn2C2CC2)n1` [Compound 60, 2-(6-(4-cyclopropyl-4H-1,2,4-triazol-3-yl)pyridin-2-yl)-6-(5-cyclopropylpyrazin-2-yl)isoindolin-1-one] the value was > 10 µM.
